The results in this text go back to publication PMC5580238 (ACS chemical neuroscience, 2016).

Broadly, the Ki is a dissociation constant, usually derived from enzyme kinetics or from competition with a known ligand. Low values mean tighter binding, high ones weaker binding.

For series [1], the target named is T807 site in AD brain tissue homogenates (NFTs) (Homo sapiens, UniProt P10636). The format is binding. The settings on record: for Inhibition of specific binding of [3H]T807 to AD brain tissue homogenate: compound at 1 μM concentration.
Sequence of T807 site in AD brain tissue homogenates (NFTs) (P10636 623-708 limits assumed): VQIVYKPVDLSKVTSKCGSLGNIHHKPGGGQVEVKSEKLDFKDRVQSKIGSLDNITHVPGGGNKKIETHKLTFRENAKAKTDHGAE
Series [2] addresses PIB site in AD brain tissue homogenates (thioflavin-T binding site on β-amyloid plaques) (Homo sapiens, UniProt P05067).
For series [3], the target named is THK-523 site in AD brain tissue homogenates (NFTs) (Homo sapiens, UniProt P10636). The format is binding. The settings on record: for Ki: Ki with [3H]THK-523 as reference radioligand; for Inhibition of specific binding of [3H]THK-523 to AD brain tissue homogenate: compound at 1 μM concentration.
Sequence of THK-523 site in AD brain tissue homogenates (NFTs) (P10636 623-708 limits assumed): as above
Series [4] is described as follows: Ligand solubility in binding assay media. Type of series: physicochemical. The settings on record: in water or PBS.
In series [5] the target is AD brain homogenate (Homo sapiens, UniProt P10636). The experiment in a line: Titration. Type of series: binding. The settings on record: titration with [18F]THK-523 plus THK-523; curve fit.
Sequence of AD brain homogenate (P10636 2-758): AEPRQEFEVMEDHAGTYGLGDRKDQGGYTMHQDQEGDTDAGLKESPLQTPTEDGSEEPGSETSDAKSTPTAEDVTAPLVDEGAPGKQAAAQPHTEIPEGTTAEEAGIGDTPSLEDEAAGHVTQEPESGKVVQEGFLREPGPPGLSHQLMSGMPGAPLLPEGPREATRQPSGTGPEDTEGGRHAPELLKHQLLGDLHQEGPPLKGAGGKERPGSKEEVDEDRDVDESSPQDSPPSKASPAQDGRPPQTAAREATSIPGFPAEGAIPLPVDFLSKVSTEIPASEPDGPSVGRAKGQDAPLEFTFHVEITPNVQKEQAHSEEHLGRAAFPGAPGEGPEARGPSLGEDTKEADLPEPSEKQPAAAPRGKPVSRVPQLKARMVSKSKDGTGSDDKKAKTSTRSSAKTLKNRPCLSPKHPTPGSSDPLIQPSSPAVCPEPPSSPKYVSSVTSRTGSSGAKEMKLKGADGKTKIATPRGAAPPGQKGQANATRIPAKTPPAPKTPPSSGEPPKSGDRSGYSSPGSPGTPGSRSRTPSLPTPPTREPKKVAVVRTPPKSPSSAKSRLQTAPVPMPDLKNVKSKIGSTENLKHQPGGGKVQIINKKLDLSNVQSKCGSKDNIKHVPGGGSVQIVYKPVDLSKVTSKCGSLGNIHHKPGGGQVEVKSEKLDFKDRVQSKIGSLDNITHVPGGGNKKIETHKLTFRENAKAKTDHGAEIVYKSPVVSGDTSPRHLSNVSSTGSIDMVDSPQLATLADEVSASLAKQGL

“Also recorded” adds a separate entry of the source. Read-outs that look alike come from different tables or passages of the source.

Sequence of PIB site in AD brain tissue homogenates (thioflavin-T binding site on β-amyloid plaques) (P05067 672-711 limits assumed): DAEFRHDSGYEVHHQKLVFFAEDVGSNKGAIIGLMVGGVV

With `Nc1ccc(-c2ccc3cc(OCCOCCOCCOCCF)ccc3n2)cc1` [10d, 4-(6-(2-(2-(2-(2-Fluoroethoxy)ethoxy)ethoxy)ethoxy)quinolin-2-yl)aniline], the inhibitory constant (Ki) in series [1] and in series [2] was greater than 1000 nM throughout.

As for `Nc1ccc(-c2ccc3cc(OCCOCCF)ccc3n2)cc1` [10b, 4-(6-(2-(2-Fluoroethoxy)ethoxy)quinolin-2-yl)aniline], the inhibition constant (Ki) in series [1] and in series [2] was greater than 1000 nM each time.

As for `Nc1ccc(-c2ccc3cc(OCCOCCN4CCOC4=O)ccc3n2)cc1` [12c, 3-(2-(2-((2-(4-Aminophenyl)quinolin-6-yl)oxy)ethoxy)ethyl)-oxazolidin-2-one], the inhibitory constant (Ki) in series [1] and in series [2] was greater than 1000 nM each time.

As for `Nc1ccc(-c2ccc3cc(OCCOCCOCCF)ccc3n2)cc1` [10c, 4-(6-(2-(2-(2-Fluoroethoxy)ethoxy)ethoxy)quinolin-2-yl)aniline], the Ki in series [1] and in series [2] was greater than 1000 nM each time.

In the case of `Nc1ccc(-c2ccc3cc(OCCOCCOCCOCCOCCF)ccc3n2)cc1` [10e, 4-(6-((14-Fluoro-3,6,9,12-tetraoxatetradecyl)oxy)quinolin-2-yl)-aniline], the inhibition constant (Ki) in series [2] came to 43 ± 39 nM.

On to `Nc1ccc(-c2ccc3cc(OCCF)ccc3n2)cc1` [THK-523, 4-(6-(2-Fluoroethoxy)quinolin-2-yl)aniline], for which the Ki in series [3] (20% ethanol wash) was 28 ± 6 nM; in series [3] (Tris-buffer (pH 7.2) wash) it was 52 ± 14 nM; in series [3] (neat ethanol wash) it was 45 ± 12 nM; in series [1], 425 ± 383 nM; in series [2], greater than 1000 nM. Also, the “Inhibition of specific binding of [3H]THK-523 to AD brain tissue homogenate” value in series [3] is “full inhibition”. For the same molecule, the “Inhibition of specific binding of [3H]T807 to AD brain tissue homogenate” value in series [1] (1 µM) was “failed to inhibit”; in series [1] (listed as THK-523 (10a), 1 µM) it was “very low inhibition”. Also, the Solubility result in series [4] is on record as “insoluble”.

As for `Fc1ccc(-c2ccc3c(c2)[nH]c2ccncc23)cn1` [T807], in series [3] (1 µM), the “Inhibition of specific binding of [3H]THK-523 to AD brain tissue homogenate” value is given as “failed to inhibit; also recorded: very low inhibition”. Further, the “Inhibition of specific binding of [3H]T807 to AD brain tissue homogenate” value in series [1] is “full inhibition”.

For the molecule `Nc1ccc(-c2ccc3cc(OCCF)ccc3n2)cc1` [[^18F]THK-523], in series [5], the “Bmax (concentration of maximal binding sites)” value is 1639 ± 235 dpm and the “NS (coefficient of nonspecific binding)” value is listed as 169 ± 3.

In the case of `Nc1ccc(-c2ccc3cc(OCCOCCOCCOCCOCCOCCF)ccc3n2)cc1` [10f, 4-(6-((17-Fluoro-3,6,9,12,15-pentaoxaheptadecyl)oxy)quinolin-2-yl)aniline], the Ki in series [2] was greater than 500 nM.

On to `Nc1ccc(-c2ccc3cc(OCCOCCNCCO)ccc3n2)cc1` [12f, 2-((2-(2-((2-(4-Aminophenyl)quinolin-6-yl)oxy)ethoxy)ethyl)-amino)ethan-1-ol], for which the Ki in series [1] and in series [2] was greater than 1000 nM in each case.
